The target of one assay is JH2 domain of human Tyk2 (Homo sapiens (Human), UniProt P29597). Description: JH2 Biochemical Assay (TR-FRET probe displacement). The format is binding. On the technique in general: Time-resolved FRET reads energy transfer from a long-lived donor to a nearby acceptor.
Another assay addresses Tyk2 (Homo sapiens (Human), UniProt P29597). Description: pSTAT4 Cell Assay (MSD, NK92 cells). It counts as cell-based.
[1] abbreviates: TR-FRET probe displacement, JH2 domain of human Tyk2.
[2] abbreviates: JH2 domain of human Tyk2, TR-FRET probe displacement.
Setting [3] is: TR-FRET probe displacement, JH2 domain.

The values below come from patent publication US20260028365A1 (BIOGEN MA INC., priority 2022, published 2026).

Structures are written as SMILES. Where a name gives a salt, the structure may show the parent alone. Read-outs that look alike come from different tables or passages of the source.

Sequence of Tyk2 (P29597 whole entry, the tested form may be a part): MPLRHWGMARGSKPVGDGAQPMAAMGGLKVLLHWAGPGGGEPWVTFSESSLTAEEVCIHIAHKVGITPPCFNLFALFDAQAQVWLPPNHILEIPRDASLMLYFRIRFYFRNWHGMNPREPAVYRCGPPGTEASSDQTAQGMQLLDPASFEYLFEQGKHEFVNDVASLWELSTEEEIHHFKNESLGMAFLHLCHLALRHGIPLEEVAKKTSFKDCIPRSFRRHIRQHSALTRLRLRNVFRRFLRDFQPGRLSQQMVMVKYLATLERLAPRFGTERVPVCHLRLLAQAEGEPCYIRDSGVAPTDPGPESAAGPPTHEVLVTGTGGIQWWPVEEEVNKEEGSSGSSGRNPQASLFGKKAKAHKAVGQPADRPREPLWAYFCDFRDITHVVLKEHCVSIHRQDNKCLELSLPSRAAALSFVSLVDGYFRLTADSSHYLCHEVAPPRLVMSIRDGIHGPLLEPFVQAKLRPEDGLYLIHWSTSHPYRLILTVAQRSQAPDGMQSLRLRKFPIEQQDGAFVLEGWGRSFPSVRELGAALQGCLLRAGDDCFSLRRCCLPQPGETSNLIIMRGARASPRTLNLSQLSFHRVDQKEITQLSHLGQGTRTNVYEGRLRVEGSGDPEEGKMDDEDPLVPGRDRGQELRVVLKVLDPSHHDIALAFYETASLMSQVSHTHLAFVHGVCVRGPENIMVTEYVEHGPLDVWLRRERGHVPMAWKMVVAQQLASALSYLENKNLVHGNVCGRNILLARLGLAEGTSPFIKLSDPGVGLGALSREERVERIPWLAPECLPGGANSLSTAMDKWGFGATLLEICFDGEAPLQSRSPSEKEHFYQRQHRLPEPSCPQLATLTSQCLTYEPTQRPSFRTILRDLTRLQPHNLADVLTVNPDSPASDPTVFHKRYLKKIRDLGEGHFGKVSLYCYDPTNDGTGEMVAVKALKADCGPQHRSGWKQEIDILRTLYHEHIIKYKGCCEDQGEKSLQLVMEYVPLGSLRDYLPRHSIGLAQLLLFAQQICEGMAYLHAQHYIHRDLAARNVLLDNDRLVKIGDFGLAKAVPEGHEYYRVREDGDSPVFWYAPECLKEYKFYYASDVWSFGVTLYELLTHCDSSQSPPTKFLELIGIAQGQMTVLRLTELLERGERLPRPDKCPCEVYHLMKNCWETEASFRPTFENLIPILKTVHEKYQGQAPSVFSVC
Sequence of JH2 domain of human Tyk2 (P29597 575-876): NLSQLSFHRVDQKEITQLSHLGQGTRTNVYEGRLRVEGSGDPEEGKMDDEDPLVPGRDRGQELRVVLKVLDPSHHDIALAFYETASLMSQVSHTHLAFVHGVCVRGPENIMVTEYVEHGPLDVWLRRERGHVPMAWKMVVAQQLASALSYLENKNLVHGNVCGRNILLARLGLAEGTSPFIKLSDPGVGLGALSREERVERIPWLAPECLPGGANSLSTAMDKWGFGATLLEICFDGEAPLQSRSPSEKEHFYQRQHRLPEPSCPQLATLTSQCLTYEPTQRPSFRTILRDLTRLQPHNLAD

For `CC(=O)Nc1cc(Nc2cc(C)nc(C(C)(F)F)n2)c(OCCN(C)C)cn1` [Example 25, N-(4-((2-(1,1-difluoroethyl)-6-methylpyrimidin-4-yl)amino)-5-(2-(dimethylamino)ethoxy)pyridin-2-yl)acetamide], the half-inhibitory concentration (IC50) (usually the concentration at which inhibition is half-maximal) on JH2 domain of human Tyk2 (setting [1]) was not above 10 nM; against Tyk2 (MSD), 10 to 100 nM.
For the compound `COCCOc1cnc(NC(C)=O)cc1Nc1cc(C)cc(C(C)(F)F)n1` [Example 63, N-(4-((6-(1,1-difluoroethyl)-4-methylpyridin-2-yl)amino)-5-(2-methoxyethoxy)pyridin-2-y1)acetamide], the IC50 on JH2 domain of human Tyk2 (setting [1]) and at Tyk2 (MSD) was not above 10 nM each time.
On to `COc1ccc(-c2cnc(NC(C)=O)cc2Nc2cc(C)nc(C(C)(F)F)n2)nc1OC` [Example 637, N-(4′-((2-(1,1-difluoroethyl)-6-methylpyrimidin-4-yl)amino)-5,6-dimethoxy-[2,3′-bipyridin]-6′-yl)acetamide], for which the IC50 at JH2 domain of human Tyk2 (setting [2]) and on Tyk2 (MSD) was not above 10 nM throughout.
Turning to `COC(C)(C)c1cc(-c2cnc(NC(C)=O)cc2Nc2cc(C)nc(C(C)(F)F)n2)ncn1` [Example 264, N-(4-((2-(1,1-difluoroethyl)-6-methylpyrimidin-4-yl)amino)-5-(6-(2-methoxypropan-2-yl)pyrimidin-4-yl)pyridin-2-yl)acetamide], the IC50 on JH2 domain of human Tyk2 (setting [1]) and on Tyk2 (MSD) was 100 to 1000 nM throughout.
As for `CCc1cc(Nc2cc(NC(C)=O)ncc2-c2ccc(C(C)(C)O)cn2)nc(C(C)(F)F)n1` [Example 839, N-(4′-((2-(1,1-difluoroethyl)-6-ethylpyrimidin-4-yl)amino)-5-(2-hydroxypropan-2-yl)-[2,3′-bipyridin]-6′-yl)acetamide], the IC50 on JH2 domain of human Tyk2 (setting [3]) and at Tyk2 was not above 10 nM in each case.
With `CC(=O)Nc1cc(Nc2cc(C)nc(C(C)(F)F)n2)c(-c2cc(CN(C)C)n(C)n2)cn1` [Example 287, N-(4-((2-(1,1-difluoroethyl)-6-methylpyrimidin-4-yl)amino)-5-(5-((dimethylamino)methyl)-1-methyl-1H-pyrazol-3-yl)pyridin-2-yl)acetamide], the IC50 on JH2 domain of human Tyk2 (setting [1]) and on Tyk2 (MSD) was not above 10 nM throughout.
Consider `COc1cnc(-c2cnc(NC(C)=O)cc2Nc2cc(C)nc(C(C)(F)F)n2)cn1` [Example 815, N-(4-((2-(1,1-difluoroethyl)-6-methylpyrimidin-4-yl)amino)-5-(5-methoxypyrazin-2-yl)pyridin-2-yl)acetamide], for which the IC50 on JH2 domain of human Tyk2 (setting [3]) was not above 10 nM; against Tyk2, not below 1000 nM.
Regarding `COCCN(C)c1cncc(-c2cnc(NC(C)=O)cc2Nc2ccnc(C(C)(F)F)n2)n1` [Example 275, N-(4-((2-(1,1-difluoroethyl)pyrimidin-4-yl)amino)-5-(6-((2-methoxyethyl)(methyl)amino)pyrazin-2-yl)pyridin-2-yl)acetamide], the IC50 at JH2 domain of human Tyk2 (setting [1]) was not above 10 nM; on Tyk2 (MSD), 100 to 1000 nM.
For the compound `COc1cnc(NC(C)=O)cc1Nc1cc(-c2cccnc2)nc(C(C)(F)F)n1` [Example 388, N-(4-((2-(1,1-difluoroethyl)-6-(pyridin-3-yl)pyrimidin-4-yl)amino)-5-methoxypyridin-2-yl)acetamide], the IC50 was not above 10 nM at JH2 domain of human Tyk2 (setting [2]) and 10 to 100 nM against Tyk2 (MSD).
The like results for `CC(=O)Nc1cc(Nc2cc(C)nc(C(C)(F)F)n2)c(OCC2CCCO2)cn1` (stereo not drawn) [Example 481, N-(4-((2-(1,1-difluoroethyl)-6-methylpyrimidin-4-yl)amino)-5-((tetrahydrofuran-2-yl)methoxy)pyridin-2-yl)acetamide] were, in that order, not above 10 nM and 10 to 100 nM.
Take `COc1cnc(NC(C)=O)cc1Nc1cc(OC2CCC2)nc(C(C)(F)F)n1` [Example 455, N-(4-((6-cyclobutoxy-2-(1,1-difluoroethyl)pyrimidin-4-yl)amino)-5-methoxypyridin-2-yl)acetamide trifluoroacetate]: the concentration for half-maximal inhibition (IC50) at JH2 domain of human Tyk2 (setting [2]) and against Tyk2 (MSD) was not above 10 nM in each case.
For `CC(=O)Nc1cc(Nc2ccnc(C(C)(F)F)n2)c(-c2ccn3ncnc3n2)cn1` [Example 537, N-(5-([1,2,4]triazolo[1,5-a]pyrimidin-5-yl)-4-((2-(1,1-difluoroethyl)pyrimidin-4-yl)amino)pyridin-2-yl)acetamide], the IC50 at JH2 domain of human Tyk2 (setting [2]) is not above 10 nM; on Tyk2 (MSD), 10 to 100 nM.
With `COCCOc1ccnc(-c2cnc(NC(C)=O)cc2Nc2cc(C)nc(C(C)(F)F)n2)n1` [Example 777, N-(4-((2-(1,1-difluoroethyl)-6-methylpyrimidin-4-yl)amino)-5-(4-(2-methoxyethoxy)pyrimidin-2-yl)pyridin-2-yl)acetamide], the figures for the half-maximal inhibitory concentration (IC50) on JH2 domain of human Tyk2 (setting [3]) and against Tyk2 were 10 to 100 nM and not below 1000 nM, respectively.
Regarding `CC(=O)Nc1cc(Nc2cc(C)nc(C(C)(F)F)n2)c(-c2cnn(C)c2)cn1` [Example 812, N-(4-((2-(1,1-difluoroethyl)-6-methylpyrimidin-4-yl)amino)-5-(1-methyl-1H-pyrazol-4-yl)pyridin-2-yl)acetamide], the IC50 on JH2 domain of human Tyk2 (setting [3]) was 10 to 100 nM; on Tyk2, not below 1000 nM.
Turning to `COc1ccc(-c2cc(Nc3cc(NC(C)=O)ncc3OC)nc(C(C)(F)F)n2)cn1` [Example 392, N-(4-((2-(1,1-difluoroethyl)-6-(6-methoxypyridin-3-yl)pyrimidin-4-yl)amino)-5-methoxypyridin-2-yl)acetamide], the IC50 at JH2 domain of human Tyk2 (setting [2]) and on Tyk2 (MSD) was not above 10 nM in each case.
Consider `CC(=O)Nc1cc(Nc2cc(C)nc(C(C)(F)F)n2)c(OCc2ncc(C3CC3)o2)cn1` [Example 342, N-(5-((5-cyclopropyloxazol-2-yl)methoxy)-4-((2-(1,1-difluoroethyl)-6-methylpyrimidin-4-yl)amino)pyridin-2-yl)acetamide], for which the IC50 on JH2 domain of human Tyk2 (setting [1]) is not above 10 nM; against Tyk2 (MSD), 100 to 1000 nM.
On to `CC(=O)Nc1cc(Nc2cc(C)nc(C(C)(F)F)n2)c(-c2ncc(CN(C)C)s2)cn1` [Example 737, N-(4-((2-(1,1-difluoroethyl)-6-methylpyrimidin-4-yl)amino)-5-(5-((dimethylamino)methyl)thiazol-2-yl)pyridin-2-yl)acetamide], for which the IC50 at JH2 domain of human Tyk2 (setting [2]) and on Tyk2 (MSD) was not above 10 nM throughout.
As for `COCc1ccc(-c2cnc(NC(C)=O)cc2Nc2cncc(OC(F)F)n2)nc1` [Example 588, N-(4′-((6-(difluoromethoxy)pyrazin-2-yl)amino)-5-(methoxymethyl)-[2,3′-bipyridin]-6′-yl)acetamide], the values for the IC50 on JH2 domain of human Tyk2 (setting [2]) and against Tyk2 (MSD) were not above 10 nM and 10 to 100 nM, respectively.
As for `CC(=O)Nc1cc(Nc2cc(C)nc(C(C)(F)F)n2)c(-c2nnc(N(C)C)s2)cn1` [Example 236, N-(4-((2-(1,1-difluoroethyl)-6-methylpyrimidin-4-yl)amino)-5-(5-(dimethylamino)-1,3,4-thiadiazol-2-yl)pyridin-2-yl)acetamide], the IC50 at JH2 domain of human Tyk2 (setting [1]) and on Tyk2 (MSD) was not above 10 nM throughout.
Turning to `CCOc1cnc(NC(C)=O)cc1Nc1cc(-c2cnn(C(=O)OC(C)(C)C)c2)nc(C(C)(F)F)n1` [Example 307, tert-butyl 4-(6-((2-acetamido-5-ethoxypyridin-4-yl)amino)-2-(1,1-difluoroethyl)pyrimidin-4-yl)-1H-pyrazole-1-carboxylate], the IC50 at JH2 domain of human Tyk2 (setting [1]) was not above 10 nM; against Tyk2 (MSD), 10 to 100 nM.
`CCc1cc(Nc2cc(NC(C)=O)ncc2-c2ccc3c(n2)OCC(C)(C)O3)nc(C(C)(F)F)n1` [Example 821, N-(4-((2-(1,1-difluoroethyl)-6-ethylpyrimidin-4-yl)amino)-5-(2,2-dimethyl-2,3-dihydro-[1,4]dioxino[2,3-b]pyridin-6-yl)pyridin-2-yl)acetamide]: the IC50 on JH2 domain of human Tyk2 (setting [3]) and against Tyk2 was not above 10 nM each time.
